Measured values taken from patent US10751293B2, “Polymer fiber scaffolds and uses thereof” (CASE WESTERN RESERVE UNIVERSITY, priority 2015, dated 2020).

Test: thermogravimetric analysis (TGA), thermal stability

## Clc1ccccc1C(c1ccccc1)(c1ccccc1)n1ccnc1 [Clotrimazole]
180° C.
  stability at the processing temperature: stable
non-isothermal mode
  temperature above which decomposition begins: above 190 °C
